Reference: patent publication US11506660B2, “Method and system for determining equilibrium dissociation constant of a reversible binding pair” (priority 2017, dated 2022)
Read-outs that look alike come from different tables or passages of the source.

Assays:
[1] = system: α1-acid glycoprotein (AGP); conditions: literature, cited from earlier work
[2] = molecular target: T1, α1-acid glycoprotein (AGP) (Homo sapiens, UniProt P02763); assay: LSTDLPF-MS (APCI mass-spectrometry detection) Kd determination, alprenolol/AGP; format: binding; conditions: α1-acid glycoprotein (AGP) in buffer, pH 7.5, Kd
T1 construct: Kd; [alprenolol]0=500 nM; 30 mM ammonium acetate p; Kd; other: MS detection
Procedure: The LSTDLPF-MS tandem was then used in Kd determination for a reversible binding pair of alprenolol and α1-acid glycoprotein (AGP).
MS experiments were carried out on a QTRAP 6500+ time-of-flight (Q-TOF) instrument (Sciex, Concord, ON, Canada) with a commercial Turbo V APCI ionization source. The optimal acceleration and focusing conditions were achieved by using 60 V declustering potential at 525° C. and 90 psi gas pressure. The analyses were performed in positive mode and scanned m/z 250 Da for alprenolol. The results were analyzed by using Analyst® QS 2.0 software. The propagation profiles obtained for [alprenolol]0=500 nM and varying [AGP]0 were reproducible (FIGS. 19A-19J). Experimental conditions were: internal capillary diameter=200 μm, capillary length=100 cm, flow rate of LPF=100 μL/min., loop's internal diameter=75 μm, loop's length=22.7 cm, loop's volume=1 μL; EM injection by 5 μL/min for 12 s (plug length=3.2 cm); “pre-separation” plug displacement by 5 μL/min for 12 s (3.2 cm displacement); [AGP]0 ranged from 0 to 1 mM; buffer was 30 mM ammonium acetate buffer at pH 7.5.
In this case, the screening phenomenon was characterized by enhancing signal of alprenolol with growing [AGP]0, (FIG. 16A). […] The method is also characterized by an acceptable reproducibility.

BSA [3] = molecular target: T2, BSA (Bos taurus, UniProt P02769); assay: LSTDLPF-based Kd determination with fluorescence detection, BSA/fluorescein; format: binding, bovine
Procedure: In an experimental implementation of the method, LSTDLPF was carried out with flow conditions inside the capillary tube being as close to LPF as possible. It is known that LPF is distorted at the capillary entrance open to a large-volume reservoir (A. Molki, L. Khezzar, A. Goharzadeh Eur. J. Phys. 2013, 34, 1127-1134).
The system operates in the following manner. A loop 116 is utilized in order to deliver the same amount of sample consistently. […] To complete the filling of the loop, the sample 110 was introduced into the loop at 15 μL/min during 12 s (t1) by using a sample low pressure pump 126, which represents 3 times the volume of the loop (FIG. 8A). The low-pressure pump 126 may be, but is not limited to, a syringe pump or a peristaltic pump. While the loop is being filled as depicted in FIG. 8A, the capillary 108 is conditioned with the mobile phase 118 at high flow rate by using a high-pressure pump 124. This high flow rate corresponds to the flow rate utilized during the propagation and will be noted Qprop afterward.
The injection of the sample is illustrated in FIG. 8B. The positions of both valves 102 and 104 have been switched. In this configuration, the low-pressure pump 128 delivered the mobile phase 112 via the injection loop 116 which contained the sample or equilibrium mixture (EM) 110. […]

BSA [4] = molecular target: T2, BSA; assay: LSTDLPF-MS (APCI mass-spectrometry detection) Kd determination, BSA/fluorescein; format: binding, bovine
Procedure: In another embodiment, the LSTDLPF setup was coupled with a mass-spectrometry (MS) detector. To facilitate complete dissociation of SM during ionization, an atmospheric pressure chemical ionization (APCI) ionization source was utilized (FIGS. 14A, 16A). The LSTDLPF-MS tandem was first used to study the same BSA/fluorescein binding pair. Experimental conditions were: internal capillary diameter=200 μm, capillary length=100 cm, flow rate of LPF=100 μL/min. loop's internal diameter=75 μm, loop's length=22.7 cm, loop's volume=1 μL, EM injection into the capillary followed by EM displacement from the capillary opening by 5 μL/min for 12 s (EM plug length=3.2 cm); “pre-separation” plug displacement by 5 μL/min for 12 s (3.2 cm displacement); [fluorescein]0=200 nM; and buffer was 30 mM ammonium acetate buffer at pH 7.5. MS experiments were carried out on a QTRAP 6500+ time-of-flight (Q-TOF) instrument (Sciex, Concord, ON, Canada) with a commercial Turbo V APCI ionization source. The optimal acceleration and focusing conditions were achieved by using 60 V declustering potential at 525° C. and 90 psi gas pressure. The analyses were performed in positive mode and scanned m/z 287 Da for fluorescein. The results were analyzed by using Analyst® QS 2.0 software.
The MS signal decreased with increasing [BSA]0 (FIG. 14A), due to the screening effect. The results presented repeatability (see FIGS. 15A-15I). Experimental conditions were: internal capillary diameter=200 μm, capillary length=100 cm, flow rate of LPF=100 μL/min. loop's internal diameter=75 μm, loop's length=22.7 cm, loop's volume=1 μL, EM injection by 5 μL/min for 12 s (plug length=3.2 cm); “pre-separation” plug displacement by 5 μL/min for 12 s (3.2 cm displacement); [fluorescein]0=200 nM; [BSA]0 ranged from 0 to 1 mM; and buffer was 30 mM ammonium acetate buffer at pH 7.5. MS experiments were carried out on a QTRAP 6500+ time-of-flight (Q-TOF) instrument (Sciex, Concord, ON, Canada) with a commercial Turbo V APCI ionization source. […] The results were analyzed by using Analyst® QS 2.0 software

BSA [5] = molecular target: T2, BSA; conditions: known value, Andersson et al. Eur. J. Biochem. 1971; cited from earlier work

T2 sequence (P02769 25-607): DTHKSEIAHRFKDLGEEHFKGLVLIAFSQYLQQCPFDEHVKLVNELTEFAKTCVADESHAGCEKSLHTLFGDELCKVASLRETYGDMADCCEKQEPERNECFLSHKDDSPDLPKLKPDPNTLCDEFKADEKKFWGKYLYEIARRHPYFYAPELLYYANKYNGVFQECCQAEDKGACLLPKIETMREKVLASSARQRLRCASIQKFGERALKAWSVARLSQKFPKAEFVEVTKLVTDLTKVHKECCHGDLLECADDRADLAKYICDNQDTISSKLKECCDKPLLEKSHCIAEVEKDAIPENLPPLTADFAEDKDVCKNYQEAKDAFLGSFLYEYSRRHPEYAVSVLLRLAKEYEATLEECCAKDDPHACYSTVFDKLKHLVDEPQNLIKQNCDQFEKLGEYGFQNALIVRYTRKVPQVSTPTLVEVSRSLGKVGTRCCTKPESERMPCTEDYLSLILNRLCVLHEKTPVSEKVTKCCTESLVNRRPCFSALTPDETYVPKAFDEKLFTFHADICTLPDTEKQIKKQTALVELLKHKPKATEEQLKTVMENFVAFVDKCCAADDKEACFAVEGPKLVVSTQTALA
T1 sequence (P02763 19-201): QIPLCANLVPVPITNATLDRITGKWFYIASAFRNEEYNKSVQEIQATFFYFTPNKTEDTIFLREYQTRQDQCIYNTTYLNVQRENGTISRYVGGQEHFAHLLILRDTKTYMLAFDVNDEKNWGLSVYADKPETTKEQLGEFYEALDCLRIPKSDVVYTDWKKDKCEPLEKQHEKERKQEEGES

| Kd (BSA [3]; single experiment, non-linear regression of isotherm with Equation 5, [fluorescein]0=200 nM, 30 mM ammonium acetate pH 7.5, error = SD of regression, read-out: Kd) [µM] | Kd (BSA [3]; triplicate experiment on three different days, error = SD of the three experiments, read-out: global Kd) [µM] | Kd (BSA [4]; after 2-step screening compensation, first experiment (FIG. 14C), [fluorescein]0=200 nM, read-out: Kd) [µM] | Kd (BSA [4]; after screening compensation, reproduced on another day (FIG. 18), read-out: Kd) [µM] | Kd (BSA [4]; weighted average of the two Kd measurements, read-out: weighted average of Kd) [µM] | SMILES | Kd ([1]; Bao et al. ChemBioChem 2011) [µM] | Kd ([1]; Imamura et al. Chirality 2002) [µM] | Kd at 500 nM ([2]; after 2-step screening compensation (FIG. 16C), [alprenolol]0=500 nM, 30 mM ammonium acetate pH 7.5) [µM] | Kd at 500 nM ([2]; measurements performed on a different day (FIGS. 20A-20D)) [µM] | Kd (BSA [5]) [µM] |
| --- | --- | --- | --- | --- | --- | --- | --- | --- | --- | --- |
|  |  |  |  |  | C=CCc1ccccc1OCC(O)CNC(C)C (stereo not shown) [alprenolol, Alprenolol] | 2.1 ± 0.3 | 1.6 ± 0.1 | 1.8 ± 0.2 | 4.1 ± 0.8 |  |
| 23 ± 3 | 20 ± 2 | 32 ± 4 | 24 ± 2 | 26 ± 2 | O=C1OC2(c3ccc(O)cc3Oc3cc(O)ccc32)c2ccccc21 [fluorescein] |  |  |  |  | ~30 |
